Source: paper PMC9863562, “Design, Synthesis, and Biological Evaluation of 2-Mercaptobenzoxazole Derivatives as Potential Multi-Kinase Inhibitors” (Pharmaceuticals, 2023)

Key:
HepG2 cells [1] = assay: Cell-cycle flow cytometry analysis (PI staining); assay type: cell-based, human; conditions: HepG2, 6b at 6.83 μM, 24 h
Description: Programmed cell death is a fundamental cellular program that is inherent in every cell of the human body. One of the most extensively studied forms of programmed cell death is apoptosis, which plays an important role during the various physiological processes and is involved in a variety of pathological conditions. The HepG2 cells were exposed to compound 6b for 24 h and the cell cycle was monitored via flow cytometry; the results are reported in Table 5.
To detect the effect of the synthesized compound, 6b, on cell cycle distribution, flow cytometry analysis was carried out, utilizing propidium iodide (PI) staining. The kit used for the cell cycle flow cytometry analysis was the K101-100 Annexin V-FITC Apoptosis Detection Kit (BioVision, Mountain View, CA, USA). […] Then, the treated cells were fixed in 70% ethanol for 12 h at 4 °C. Following that, the cells were rinsed with cold PBS, incubated with 100 μL RNase A for 0.5 h at 37 °C, and stained with propidium iodide (400 μL) in the dark at RT for an extra 0.5 h. The stained cells were determined, utilizing Epics XLMCL™ flow cytometer equipment (Beckman Coulter, Apeldoorn, Netherlands), then the results were collected and analyzed with the Flowing software (version 2.5.1, Turku Center for Biotechnology, Turku, Finland).

HepG2 cells [2] = assay: Annexin V-FITC/PI dual-staining apoptosis analysis; assay type: cell-based, human; conditions: HepG2, 6b at 6.83 μM, 24 h
Description: To identify the mode of cell death promoted by compound 6b within the liver cancer cells (HepG2), apoptosis rate analysis was performed, following 24 h of exposure. […] Moreover, the average proportion of Annexin-V-stained positive cells (total apoptotic cells) was elevated from 2.02% within the untreated cells to 16.84% within the treated ones. […] The provided findings are supported by the previous cell cycle analysis, confirming the potentiality of 6b as a promising anticancer agent (see Table 6 and Figure 6).
Apoptosis analysis was employed to evaluate the apoptotic effect of compound 6b. […] These stained cells were evaluated using flow cytometry equipment Epics XL-MCL™ (Beckman Coulter, Apeldoorn, Netherlands) with an excitation wavelength of 488 nm and an emission wavelength of 530 nm. The results were then analyzed with the Flowing software.

[3] = test system: MCF-7 cells (mammary gland cancer); assay: MTT cytotoxicity assay, MCF-7; assay type: cell-based; conditions: Homo sapiens, MCF7, 24 h treatment, read-out: In Vitro Cytotoxicity IC50 MCF-7
Description: After incubation, the cells were treated with various concentrations of the synthesized compounds and incubated for an additional 24 h. Following the drug treatment, 20 µL of 5 mg/mL MTT solution was added and incubated for 4 h. To dissolve the purple formazan that had formed, 100 µL dimethyl sulfoxide (DMSO) was added to each well. […] The percentage of relative cell viability was counted using the following formula (A570 of handled specimens/A570 of the unhandled specimen), multiplied by 100.

Caspase-9 = assay: Apoptosis-related proteins in HepG2 cells (ELISA), Caspase-9; assay type: cell-based, human
Excerpt: Compound 6b was selected to investigate the apoptotic markers against the liver cancer cell line (HepG2). […] Typically, Bax, Bcl-2, and caspases contribute to the regulation of apoptotic signaling. Acting as an apoptotic activator (Bax) or inhibitor (Bcl-2), the Bcl-2 family of proteins plays a significant role in apoptosis. The caspase family comprises cysteine proteases that are classified as either executioner—caspase-3, or as initiators—caspase-9 and caspase-8 [40]. […] Nevertheless, considerable downregulation of the anti-apoptotic gene, Bcl-2 (0.26 folds), was described, leading to an increased expression ratio of Bax/Bcl-2 (1→20.53). The Bax/Bcl-2 gene expression ratio can serve as an early predictor for cancer in patients and is a sensitive monitor of cancer progression. […]
The HepG2 cells were incubated in 96-well plates in triplicates and left for 24 h. […] The treated cells, along with control cells, were then incubated for another 24 h; then, caspases-3 and 9, BAX, and Bcl-2 levels were determined using ELISA assay kits; KHO1091 (Invitrogen^TM, Grand Island, NY, USA), EIA-4860 (DRU International, Inc., Mountainside, NJ, USA), EIA-4487 (DRU International INC., Mountainside, NJ, USA) and 99–0042 (Invitrogen^TM, Grand Island, NY, USA), respectively, according to their manufacturers’ procedures.

Human HER2 = target: T1, Human HER2 (Homo sapiens, UniProt P04626); assay: In vitro HER2 enzyme assay (ELISA kit); assay type: biochemical
T1 construct: purchased
Description: Human CDK2, EGFR, HER2, and VEGFR-2 ELISA kits (Enzyme-Linked-Immunosorbent Serologic Assay) were used during this evaluation. At first, specified antibody proteins were added separately to a 96-well plate, then 0.1 mL of the standard solution or the evaluated molecule was added; these were then incubated for 2.5 h at RT. After rinsing, 100 μL of the ready-made biotin antibody protein was added, then incubated for one extra hour at room temperature and, finally, washed. Next, 100 μL of streptavidin solution was added, incubated at room temperature for 45 min, and then washed. Next, 100 μL of the TMB substrate reagent was added and incubated for 0.5 h at RT, followed by adding 50 μL of the stop solution. The absorbance of the ELISA plate was promptly measured at 450 nm using the ELISA plate reader.

Bax = assay: Apoptosis-related proteins in HepG2 cells (ELISA), Bax; assay type: cell-based, human
Excerpt: Compound 6b was selected to investigate the apoptotic markers against the liver cancer cell line (HepG2). […] Typically, Bax, Bcl-2, and caspases contribute to the regulation of apoptotic signaling. Acting as an apoptotic activator (Bax) or inhibitor (Bcl-2), the Bcl-2 family of proteins plays a significant role in apoptosis. The caspase family comprises cysteine proteases that are classified as either executioner—caspase-3, or as initiators—caspase-9 and caspase-8 [40]. […] Nevertheless, considerable downregulation of the anti-apoptotic gene, Bcl-2 (0.26 folds), was described, leading to an increased expression ratio of Bax/Bcl-2 (1→20.53). The Bax/Bcl-2 gene expression ratio can serve as an early predictor for cancer in patients and is a sensitive monitor of cancer progression. Collating all the provided evidence, the upregulation of caspase-3, caspase-9, and Bax is clear, while the downregulation of Bcl-2 genes makes it evident that compound 6b induces apoptosis within the liver cancer cell line (HepG2).
The HepG2 cells were incubated in 96-well plates in triplicates and left for 24 h. After 24 h of incubation, the cells were treated with compound 6b at different concentrations, while control cells were only treated with 0.1% DMSO (v/v). The treated cells, along with control cells, were then incubated for another 24 h; then, caspases-3 and 9, BAX, and Bcl-2 levels were determined using ELISA assay kits; KHO1091 (Invitrogen^TM, Grand Island, NY, USA), EIA-4860 (DRU International, Inc., Mountainside, NJ, USA), EIA-4487 (DRU International INC., Mountainside, NJ, USA) and 99–0042 (Invitrogen^TM, Grand Island, NY, USA), respectively, according to their manufacturers’ procedures.

T1 sequence (P04626 23-1255): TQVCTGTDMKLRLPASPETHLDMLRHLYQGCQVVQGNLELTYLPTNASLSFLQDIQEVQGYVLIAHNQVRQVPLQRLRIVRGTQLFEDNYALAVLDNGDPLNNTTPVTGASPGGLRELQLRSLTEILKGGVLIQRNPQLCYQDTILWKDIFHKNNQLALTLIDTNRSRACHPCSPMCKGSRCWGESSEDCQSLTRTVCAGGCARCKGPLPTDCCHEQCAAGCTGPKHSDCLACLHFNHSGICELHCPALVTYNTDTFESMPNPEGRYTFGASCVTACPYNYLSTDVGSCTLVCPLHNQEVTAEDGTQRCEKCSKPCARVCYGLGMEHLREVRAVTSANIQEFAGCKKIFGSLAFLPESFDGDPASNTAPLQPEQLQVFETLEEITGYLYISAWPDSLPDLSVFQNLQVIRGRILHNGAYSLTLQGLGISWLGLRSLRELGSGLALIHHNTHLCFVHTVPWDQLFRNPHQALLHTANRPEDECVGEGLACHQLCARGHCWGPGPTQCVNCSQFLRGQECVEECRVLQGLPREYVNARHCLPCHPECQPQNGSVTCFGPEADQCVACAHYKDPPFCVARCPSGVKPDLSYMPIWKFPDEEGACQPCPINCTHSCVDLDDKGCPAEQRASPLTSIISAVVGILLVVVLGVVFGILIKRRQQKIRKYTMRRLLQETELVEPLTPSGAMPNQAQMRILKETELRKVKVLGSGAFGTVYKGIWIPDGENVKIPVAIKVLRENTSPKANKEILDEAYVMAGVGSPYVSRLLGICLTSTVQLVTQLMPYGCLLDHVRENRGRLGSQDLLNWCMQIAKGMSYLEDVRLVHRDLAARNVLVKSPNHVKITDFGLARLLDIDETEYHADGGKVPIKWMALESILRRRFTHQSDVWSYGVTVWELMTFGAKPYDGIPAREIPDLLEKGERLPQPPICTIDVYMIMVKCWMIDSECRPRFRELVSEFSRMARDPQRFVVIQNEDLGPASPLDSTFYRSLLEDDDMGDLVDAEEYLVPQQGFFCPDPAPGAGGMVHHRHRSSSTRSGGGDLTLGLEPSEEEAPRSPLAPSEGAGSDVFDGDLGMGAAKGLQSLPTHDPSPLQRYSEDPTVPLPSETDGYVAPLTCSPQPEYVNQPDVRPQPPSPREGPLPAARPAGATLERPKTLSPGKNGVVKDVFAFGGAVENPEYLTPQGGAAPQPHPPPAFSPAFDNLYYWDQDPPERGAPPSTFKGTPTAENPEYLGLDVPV

IC50 (Human HER2): 224 ± 13 nM
Compound: O=C(CSc1nc2ccccc2o1)NN=Cc1ccc[nH]1 (mixture of isomers) [Compound 6b, (E/Z)-N′-((1H-pyrrol-2-yl)methylene)-2-(benzo[d]oxazol-2-ylthio)acetohydrazide]
%G0–G1 (HepG2 cells [1]): 40.37%
%G2/M (HepG2 cells [1]): 31.26%
%Pre–G1 (HepG2 cells [1]): 16.84%
%S (HepG2 cells [1]): 28.37%
Early Apoptosis (Lower Right %) (HepG2 cells [2]): 1.64%
Late Apoptosis (Upper Right %) (HepG2 cells [2]): 10.91%
Total (%) apoptotic cells (HepG2 cells [2]): 16.84%
IC50 [3]: 3640 ± 200 nM
Caspase-9 Expression (Caspase-9; 24 h treatment, ELISA): 15.82 ± 0.51 pg/mL
Caspase-9 Fold (Caspase-9; versus control HepG2 = 1): 3.5 fold
Bax Expression (Bax; 24 h treatment, ELISA): 448.4 ± 15.4 pg/mL
expression ratio of Bax/Bcl-2 (Bax; control = 1): 20.53
Bax Fold (Bax; versus control HepG2 = 1): 5.34 fold
